Results on 16 compounds are retold here after patent publication US20250171432A1, “COMPOUNDS AND METHODS OF USE” (Tango Therapeutics, Inc., priority 2022, published 2025).

What all share (assay type): cell-based
For assay [1], the system named is SDMA (PRMT5 activity) in HAP1 MTAP-intact cell line. As to the kind of experiment: SDMA in-cell western assay, HAP1 MTAP-intact. The conditions noted are these: SDMA in-cell western, HAP1 MTAP-intact cells, 24 hours compound incubation.
Assay [2] deals with SDMA (PRMT5 activity) in HAP1 MTAP-deleted cell line. As to the kind of experiment: SDMA in-cell western assay, HAP1 MTAP-deleted. The conditions noted are these: for IC50 / IC90: SDMA in-cell western, HAP1 MTAP-deleted cells, 24 hours compound incubation; for Hap1 MTAP intact/deleted ratio: ratio of SDMA IC50 in HAP1 MTAP-intact to HAP1 MTAP-deleted cell line.
Assay [3] deals with HAP1 MTAP-deleted cell line. As to the kind of experiment: Viability assay (CellTiter-Glo), HAP1 MTAP-deleted. The note with it: HAP1 MTAP-deleted cells, 7 days. The method in brief: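 HAP1 MTAP-deleted and MTAP-intact cells seeded, then dosed next day (n=3, 0.2% DMSO) and grown 7 days. Viability by CellTiter-Glo luminescence, expressed as % of DMSO control per cell line.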
Background: Cellular ATP, detected with luciferase, serves as a proxy for viable cell number.

What is called IC50 is the midpoint of a concentration-inhibition curve. What is called IC90 is the concentration at which the effect reaches the 90% level. A lower IC90 goes with an effect from little substance. For `CCc1cc(NC(=O)C(=O)N2C[C@@H](C)CC[C@@H]2c2ccc3oc(C4CCN(C)CC4)nc3c2)cnc1N` [Compound 53, N-(6-amino-5-ethylpyridin-3-yl)-2-((2R,5S)-5-methyl-2-(2-(1-methylpiperidin-4-yl)benzo[d]oxazol-5-yl)piperidin-1-yl)-2-oxoacetamide], the IC50 was above 0.05 µM in assay [1] (Homo sapiens); below 0.005 µM in assay [2] (Homo sapiens); below 0.1 µM in assay [3] (Homo sapiens, 168 h). In addition, the IC90 in assay [2] (Homo sapiens) was below 0.075 µM. Moreover, the “Hap1 MTAP intact/deleted ratio” value in assay [2] is given as “A (“A” indicates an IC50 ratio greater than or equal to 30 fold)”.

Consider `COc1ncc(NC(=O)C(=O)N2C[C@@H](C)CC[C@@H]2c2ccc3cn(CCN(C)C)nc3c2)cc1C(N)=O` [Compound 7, 2-methoxy-5-[[2-oxo-2-[(2R,5S)-2-[2-[2-(dimethylamino)ethyl]indazol-6-yl]-5-methyl-1-piperidyl]acetyl]amino]pyridine-3-carboxamide], for which the IC50 is above 0.05 µM in assay [1] (Homo sapiens, HAP1, 24 h); 0.005 to 0.05 µM in assay [2] (Homo sapiens); below 0.1 µM in assay [3] (Homo sapiens, 168 h). In assay [2] (Homo sapiens), this compound yielded a concentration for an effect of 90% (IC90) below 0.075 µM. Moreover, the “Hap1 MTAP intact/deleted ratio” value in assay [2] is on record as “A (“A” indicates an IC50 ratio greater than or equal to 30 fold)”.

Take `CCc1cc(NC(=O)C(=O)N2C[C@@H](C)CC[C@@H]2c2ccc(F)c(OCCN(C)C)c2)cnc1N` [Compound 128, N-(6-amino-5-ethylpyridin-3-yl)-2-((2R,5S)-2-(3-(2-(dimethylamino)ethoxy)-4-fluorophenyl)-5-methylpiperidin-1-yl)-2-oxoacetamide]: the IC50 in assay [1] (Homo sapiens, HAP1, 24 h) was above 0.05 µM; in assay [2] (Homo sapiens) it was 0.005 to 0.05 µM; in assay [3] (Homo sapiens, 168 h), below 0.1 µM. The concentration for an effect of 90% (IC90) in assay [2] (Homo sapiens) was above 0.125 µM. For the same compound, in assay [2], the “Hap1 MTAP intact/deleted ratio” value is on record as “A (“A” indicates an IC50 ratio greater than or equal to 30 fold)”.

Consider `CCc1cc(NC(=O)C(=O)N2C[C@@H](C)CC[C@@H]2c2ccc3sc(C4CN(C)CCN4C)nc3c2)cnc1N` (mixture of isomers) [Compound 70, N-(6-amino-5-ethylpyridin-3-yl)-2-((2R,5S)-2-(2-(1,4-dimethylpiperazin-2-yl)benzo[d]thiazol-5-yl)-5-methylpiperidin-1-yl)-2-oxoacetamide], for which the IC50 in assay [1] (Homo sapiens, HAP1, 24 h) was above 0.05 µM; in assay [2] (Homo sapiens), 0.005 to 0.05 µM; in assay [3] (Homo sapiens, 168 h), below 0.1 µM. The same compound yielded an IC90 in assay [2] (Homo sapiens) below 0.075 µM. The “Hap1 MTAP intact/deleted ratio” value in assay [2] is “B (“B” indicates an IC50 ratio greater than or equal to 15 fold but lower than 30 fold)”.

With `CCc1cc(NC(=O)C(=O)N2C[C@@H](C)CC[C@@H]2c2ccc3cccnc3c2)cnc1N` [Compound 76, N-(6-amino-5-ethylpyridin-3-yl)-2-((2R,5S)-5-methyl-2-(quinolin-7-yl)piperidin-1-yl)-2-oxoacetamide], the IC50 was above 0.05 µM in assay [1] (Homo sapiens, HAP1, 24 h); 0.005 to 0.05 µM in assay [2] (Homo sapiens); 0.1 to 1 µM in assay [3] (Homo sapiens, 168 h). The compound further displayed a 90% effect concentration (IC90) in assay [2] (Homo sapiens) above 0.125 µM. The “Hap1 MTAP intact/deleted ratio” value in assay [2] is reported as “A (“A” indicates an IC50 ratio greater than or equal to 30 fold)”.

With `CCc1cc(NC(=O)C(=O)N2C[C@@H](C)CC[C@@H]2c2ccc3sc(C4CN(C)CC(=O)N4C)nc3c2)cnc1N` (mixture of isomers) [Compound 125, N-(6-amino-5-ethylpyridin-3-yl)-2-((2R,5S)-2-(2-(1,4-dimethyl-6-oxopiperazin-2-yl)benzo[d]thiazol-5-yl)-5-methylpiperidin-1-yl)-2-oxoacetamide], the IC50 in assay [1] (Homo sapiens, HAP1, 24 h) is above 0.05 µM; in assay [2] (Homo sapiens), 0.005 to 0.05 µM; in assay [3] (Homo sapiens, 168 h) it was below 0.1 µM. In assay [2] (Homo sapiens), the IC90 lay in the range of 0.075 to 0.125 µM. Besides, the “Hap1 MTAP intact/deleted ratio” value in assay [2] was “B (“B” indicates an IC50 ratio greater than or equal to 15 fold but lower than 30 fold)”.

As for `COc1ncc(NC(=O)C(=O)N2C[C@@H](C)CC[C@@H]2c2ccc3sc([C@H](C)CN4CCCC4)nc3c2)cc1C(N)=O` [Compound 15, 2-methoxy-5-[[2-oxo-2-[(2R,5S)-5-methyl-2-[2-[(1R)-1-methyl-2-pyrrolidin-1-yl-ethyl]-1,3-benzothiazol-5-yl]-1-piperidyl]acetyl]amino]pyridine-3-carboxamide], the IC50 in assay [1] (Homo sapiens, HAP1, 24 h) was above 0.05 µM; in assay [2] (Homo sapiens), below 0.005 µM; in assay [3] (Homo sapiens, 168 h), below 0.1 µM. In assay [2] (Homo sapiens), this compound displayed an IC90 below 0.075 µM. Also, the “Hap1 MTAP intact/deleted ratio” value in assay [2] is reported as “B (“B” indicates an IC50 ratio greater than or equal to 15 fold but lower than 30 fold)”.

On to `CCc1cc(NC(=O)C(=O)N2C[C@@H](C)CC[C@@H]2c2ccc3c(c2)OC2(CCN(C)CC2)O3)cnc1N` [Compound 92, N-(6-amino-5-ethylpyridin-3-yl)-2-((2R,5S)-5-methyl-2-(1′-methylspiro[benzo[d][1,3]dioxole-2,4′-piperidin]-5-yl)piperidin-1-yl)-2-oxoacetamide], for which the IC50 is above 0.05 µM in assay [1] (Homo sapiens); 0.005 to 0.05 µM in assay [2] (Homo sapiens); below 0.1 µM in assay [3] (Homo sapiens, 168 h). In assay [2] (Homo sapiens), the IC90 was 0.075 to 0.125 µM. Also, the “Hap1 MTAP intact/deleted ratio” value in assay [2] was “A (“A” indicates an IC50 ratio greater than or equal to 30 fold)”.

As to `COc1ncc(NC(=O)C(=O)N2C[C@@H](C)CC[C@@H]2c2ccc3sc([C@H]4C[C@H](N(C)C)C4)nc3c2)cc1C(N)=O` (single isomer, unassigned) [Compound 50], the IC50 in assay [1] (Homo sapiens, HAP1, 24 h) is above 0.05 µM; in assay [2] (Homo sapiens), below 0.005 µM; in assay [3] (Homo sapiens, 168 h) it was below 0.1 µM. The compound further returned an IC90 in assay [2] (Homo sapiens) below 0.075 µM. In assay [2], the “Hap1 MTAP intact/deleted ratio” value is “A (“A” indicates an IC50 ratio greater than or equal to 30 fold)”.

With `COc1ncc(NC(=O)C(=O)N2C[C@@H](C)CC[C@@H]2c2ccc3sc(C4=C(C)CN(C)CC4)nc3c2)cc1C(N)=O` [Compound 61, 5-(2-((2R,5S)-2-(2-(1,5-dimethyl-1,2,3,6-tetrahydropyridin-4-yl)benzo[d]thiazol-5-yl)-5-methylpiperidin-1-yl)-2-oxoacetamido)-2-methoxynicotinamide], the IC50 is above 0.05 µM in assay [1] (Homo sapiens); below 0.005 µM in assay [2] (Homo sapiens); below 0.1 µM in assay [3] (Homo sapiens, 168 h). This compound also yielded a concentration for an effect of 90% (IC90) in assay [2] (Homo sapiens) below 0.075 µM. For the same compound, the “Hap1 MTAP intact/deleted ratio” value in assay [2] is listed as “A (“A” indicates an IC50 ratio greater than or equal to 30 fold)”.

Consider `CCc1cc(NC(=O)C(=O)N2C[C@@H](C)CC[C@@H]2c2ccc3cn(C4CN(C)CC(C)(C)C4)nc3c2)cnc1N` (single isomer, unassigned) [Compound 114], for which the 50% inhibitory concentration (IC50) in assay [1] is 0.005 to 0.05 µM. In assay [2], the IC50 was below 0.005 µM, the IC90 was below 0.075 µM and the “Hap1 MTAP intact/deleted ratio” value is reported as “B (“B” indicates an IC50 ratio greater than or equal to 15 fold but lower than 30 fold)”. In assay [3], this compound came in with an IC50 below 0.1 µM.

For `COc1ncc(NC(=O)C(=O)N2C[C@@H](C)CC[C@@H]2c2ccc3cc(C#N)c(C4CCN(C)CC4)nc3c2)cc1C(N)=O` [Compound 113, 5-(2-((2R,5S)-2-(3-cyano-2-(1-methylpiperidin-4-yl)quinolin-7-yl)-5-methylpiperidin-1-yl)-2-oxoacetamido)-2-methoxynicotinamide], the 50% inhibitory concentration (IC50) was above 0.05 µM in assay [1] (Homo sapiens, HAP1, 24 h); below 0.005 µM in assay [2] (Homo sapiens); below 0.1 µM in assay [3] (Homo sapiens, 168 h). This compound also had an IC90 in assay [2] (Homo sapiens) below 0.075 µM. Also, the “Hap1 MTAP intact/deleted ratio” value in assay [2] is “A (“A” indicates an IC50 ratio greater than or equal to 30 fold)”.

Consider `CCc1cc(NC(=O)C(=O)N2C[C@@H](C)CC[C@@H]2c2ccc3nn([C@H]4CCN(C)C(C)(C)C4)cc3c2)cnc1N` [Compound 44], for which the half-maximal inhibitory concentration (IC50) in assay [1] (Homo sapiens, HAP1, 24 h) is 0.005 to 0.05 µM; in assay [2] (Homo sapiens) it was below 0.005 µM; in assay [3] (Homo sapiens, 168 h) it was below 0.1 µM. Besides, the IC90 in assay [2] (Homo sapiens) was below 0.075 µM. The “Hap1 MTAP intact/deleted ratio” value in assay [2] is “B (“B” indicates an IC50 ratio greater than or equal to 15 fold but lower than 30 fold)”.

Consider `CCc1cc(NC(=O)C(=O)N2C[C@@H](C)CC[C@@H]2c2ccc3c(C)n(C4CCN(C)CC4)nc3c2)cnc1N` [Compound 19, N-(6-amino-5-ethyl-3-pyridyl)-2-oxo-2-[(2R,5S)-5-methyl-2-[3-methyl-2-(1-methyl-4-piperidyl)indazol-6-yl]-1-piperidyl]acetamide], for which the half-maximal inhibitory concentration (IC50) was above 0.05 µM in assay [1] (Homo sapiens, HAP1, 24 h); below 0.005 µM in assay [2] (Homo sapiens); below 0.1 µM in assay [3] (Homo sapiens, 168 h). Also, in assay [2] (Homo sapiens), the 90% effect concentration (IC90) was below 0.075 µM. Moreover, the “Hap1 MTAP intact/deleted ratio” value in assay [2] is on record as “A (“A” indicates an IC50 ratio greater than or equal to 30 fold)”.

As to `CCc1cc(NC(=O)C(=O)N2C[C@@H](C)CC[C@@H]2c2ccc3cn([C@H]4C[C@H](C)CN(C)C4)nc3c2)cnc1N` (relative stereo) [Compound 85, N-(6-amino-5-ethylpyridin-3-yl)-2-((2R,5S)-2-(2-(1,5-dimethylpiperidin-3-yl)-2H-indazol-6-yl)-5-methylpiperidin-1-yl)-2-oxoacetamide], the IC50 is above 0.05 µM in assay [1] (Homo sapiens, HAP1, 24 h); below 0.005 µM in assay [2] (Homo sapiens); below 0.1 µM in assay [3] (Homo sapiens, 168 h). The same compound returned an IC90 in assay [2] (Homo sapiens) below 0.075 µM. Further, the “Hap1 MTAP intact/deleted ratio” value in assay [2] is “A (“A” indicates an IC50 ratio greater than or equal to 30 fold)”.

As for `COc1ncc(NC(=O)C(=O)N2C[C@@H](C)CC[C@@H]2c2ccc3ccc(N4CCN(C)CC4)nc3c2)cc1C(N)=O` [Compound 126, 2-methoxy-5-(2-((2R,5S)-5-methyl-2-(2-(4-methylpiperazin-1-yl)quinolin-7-yl)piperidin-1-yl)-2-oxoacetamido)nicotinamide], the 50% inhibitory concentration (IC50) in assay [1] (Homo sapiens, HAP1, 24 h) was above 0.05 µM; in assay [2] (Homo sapiens), below 0.005 µM; in assay [3] (Homo sapiens, 168 h), below 0.1 µM. The IC90 in assay [2] (Homo sapiens) is below 0.075 µM. Besides, in assay [2], the “Hap1 MTAP intact/deleted ratio” value is on record as “A (“A” indicates an IC50 ratio greater than or equal to 30 fold)”.
